Measured values taken from BindingDB's records for doi:10.7270/Q2SX6GDH (n/a, 1996).
pIC50: −log10 of the molar value.

Legend:
[1] = molecular target: 5-hydroxytryptamine receptor 2A (Rattus norvegicus, UniProt P14842); experiment: ChEBML_2582
Experimental: Compound was tested for its ability to displace [3H]DOB from 5-hydroxytryptamine 2A receptor in rat cortex homogenates

[2] = molecular target: T1, 5-hydroxytryptamine receptor 3A/3B (Rattus norvegicus, UniProt P35563+Q9JJ16); experiment: (§1) Compound was tested for its ability to displace [3H]-Q-ICS 205-930 from 5-hydroxytryptamine 3 receptor in rat cortex homogenates
T1 sequence (P35563 whole entry): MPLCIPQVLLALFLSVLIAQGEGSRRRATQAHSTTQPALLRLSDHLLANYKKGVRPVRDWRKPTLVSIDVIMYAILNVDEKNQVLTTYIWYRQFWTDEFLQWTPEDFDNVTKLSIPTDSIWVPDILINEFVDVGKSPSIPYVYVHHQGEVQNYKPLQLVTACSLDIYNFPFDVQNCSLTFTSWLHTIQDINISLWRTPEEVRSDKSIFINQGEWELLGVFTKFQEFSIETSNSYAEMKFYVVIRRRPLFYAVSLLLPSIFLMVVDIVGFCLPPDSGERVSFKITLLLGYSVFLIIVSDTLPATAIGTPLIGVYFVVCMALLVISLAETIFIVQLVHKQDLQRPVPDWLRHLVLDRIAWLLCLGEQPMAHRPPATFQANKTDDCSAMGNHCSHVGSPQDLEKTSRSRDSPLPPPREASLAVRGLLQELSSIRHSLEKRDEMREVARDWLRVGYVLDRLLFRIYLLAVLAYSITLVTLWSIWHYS
T1 sequence (Q9JJ16 whole entry): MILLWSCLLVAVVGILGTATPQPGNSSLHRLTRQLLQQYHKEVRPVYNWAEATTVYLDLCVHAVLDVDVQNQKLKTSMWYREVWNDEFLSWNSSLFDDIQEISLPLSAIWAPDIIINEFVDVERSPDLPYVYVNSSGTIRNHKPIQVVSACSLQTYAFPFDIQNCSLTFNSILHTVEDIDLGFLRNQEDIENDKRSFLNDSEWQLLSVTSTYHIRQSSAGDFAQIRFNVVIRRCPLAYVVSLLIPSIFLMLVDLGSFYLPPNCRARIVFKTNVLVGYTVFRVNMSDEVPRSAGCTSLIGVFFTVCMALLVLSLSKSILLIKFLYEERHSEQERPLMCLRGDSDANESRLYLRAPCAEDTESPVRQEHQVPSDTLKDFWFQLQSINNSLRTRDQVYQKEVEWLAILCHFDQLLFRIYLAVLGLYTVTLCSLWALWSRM

[3] = molecular target: T2, 5-hydroxytryptamine receptor 1D (Sus scrofa, UniProt P79400); experiment: ChEBML_1955
Experimental: (§2) Compound was tested for its ability to displace [3H]-5-HT binding to 5-hydroxytryptamine 1D receptor recognition sites in pig caudate membranes

[4] = molecular target: T2, 5-hydroxytryptamine receptor 1D; experiment: as §2
[5] = Compound was tested for its ability to displace [3H]-5-HT binding to 5-hydroxytryptamine 1D receptor recognition sites in pig caudate membranes
[6] = Compound was tested for its ability to displace [3H]mesulergine from 5-hydroxytryptamine 2C receptor in pig cortex
[7] = Compound was tested for its ability to displace [3H]8-OH-DPAT from 5-hydroxytryptamine 1A receptor in pig cortex
[8] = molecular target: T1, 5-hydroxytryptamine receptor 3A/3B; experiment: ChEBML_3165
Experimental: as §1

[9] = molecular target: T2, 5-hydroxytryptamine receptor 1D; experiment: Compound was tested for its ability to displace [125I]GTI binding to 5-hydroxytryptamine 1D receptor recognition sites in pig caudate membranes

T2 sequence (P79400 whole entry): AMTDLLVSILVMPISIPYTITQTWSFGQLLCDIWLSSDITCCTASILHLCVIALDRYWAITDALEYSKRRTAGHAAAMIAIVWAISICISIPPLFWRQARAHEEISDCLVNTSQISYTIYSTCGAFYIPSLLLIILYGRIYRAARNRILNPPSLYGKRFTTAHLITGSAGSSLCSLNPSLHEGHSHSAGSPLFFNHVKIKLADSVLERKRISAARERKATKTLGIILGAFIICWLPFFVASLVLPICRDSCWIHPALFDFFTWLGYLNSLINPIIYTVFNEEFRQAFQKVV
5-hydroxytryptamine receptor 2A, sequence (P14842 whole entry): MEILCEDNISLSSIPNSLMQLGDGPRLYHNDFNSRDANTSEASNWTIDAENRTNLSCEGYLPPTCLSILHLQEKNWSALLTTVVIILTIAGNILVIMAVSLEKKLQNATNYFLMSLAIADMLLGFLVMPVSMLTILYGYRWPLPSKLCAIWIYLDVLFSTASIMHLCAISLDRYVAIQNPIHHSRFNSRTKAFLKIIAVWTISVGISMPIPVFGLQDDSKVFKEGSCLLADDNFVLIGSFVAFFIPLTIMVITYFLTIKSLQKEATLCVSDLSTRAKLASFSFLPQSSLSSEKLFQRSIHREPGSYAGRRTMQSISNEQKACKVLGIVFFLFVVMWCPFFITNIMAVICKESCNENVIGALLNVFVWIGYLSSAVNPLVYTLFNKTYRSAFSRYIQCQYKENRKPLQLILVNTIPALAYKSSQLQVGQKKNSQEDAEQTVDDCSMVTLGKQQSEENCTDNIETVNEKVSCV

SMILES	pIC50 [1]	pIC50 [2]	pIC50 [3]	pIC50 [4]	pIC50 [5]	pIC50 [6]	pIC50 [7]	pIC50 [8]	pIC50 [9]
CN1CCC(c2c[nH]c3ccc(-n4cnnc4)cc23)CC1	< 5.00	5.57	8.92	8.10					
CN(C)CCc1c[nH]c2ccc(-n3cncn3)cc12					7.70	6.30	7.60		
CN(C)CCc1c[nH]c2ccc(-n3cnnc3)cc12 [Dimethyl-[2-(5-[1,2,4]triazol-4-yl-1H-indol-3-yl)-ethyl]-amine]	< 5.00		9.37	8.70				< 5.00	
CN(C)CCc1c[nH]c2ccc(Cn3cncn3)cc12 [N,N-dimethyl-2-[5-(1H-1,2,4-triazol-1-ylmethyl)-1H-indol-3-yl]ethanamine]	5.14	5.39		7.31					7.80
CNS(=O)(=O)Cc1ccc2[nH]cc(CCN(C)C)c2c1 [Sumax]		< 5.00							
